BindingDB's records for doi:10.1016/j.bmc.2008.05.048 (University of Canterbury, 2008)
pIC50: −log10 of the molar value.

Target: T1, Calpain-2 catalytic subunit (Ovis aries, UniProt A8IF71)
T1 sequence (A8IF71 whole entry): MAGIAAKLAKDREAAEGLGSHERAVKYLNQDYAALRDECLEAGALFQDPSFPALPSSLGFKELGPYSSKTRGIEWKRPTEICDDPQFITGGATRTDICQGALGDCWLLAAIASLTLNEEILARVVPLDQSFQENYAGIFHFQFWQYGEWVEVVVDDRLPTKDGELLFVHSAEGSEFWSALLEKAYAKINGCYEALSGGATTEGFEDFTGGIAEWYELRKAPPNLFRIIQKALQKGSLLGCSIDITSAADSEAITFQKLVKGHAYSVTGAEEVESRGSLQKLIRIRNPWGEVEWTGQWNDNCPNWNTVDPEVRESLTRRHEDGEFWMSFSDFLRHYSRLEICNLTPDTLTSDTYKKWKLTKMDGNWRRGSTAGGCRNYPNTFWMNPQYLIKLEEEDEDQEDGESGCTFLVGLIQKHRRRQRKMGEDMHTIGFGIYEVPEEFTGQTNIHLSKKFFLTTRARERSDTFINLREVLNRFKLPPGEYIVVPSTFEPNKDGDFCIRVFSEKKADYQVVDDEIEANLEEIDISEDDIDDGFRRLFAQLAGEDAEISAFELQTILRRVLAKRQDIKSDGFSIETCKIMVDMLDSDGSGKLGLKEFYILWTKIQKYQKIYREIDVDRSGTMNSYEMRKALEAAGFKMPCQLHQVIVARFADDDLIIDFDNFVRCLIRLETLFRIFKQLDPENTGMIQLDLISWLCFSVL
Test: BODIPY Fluorescent Microplate Assay
Conditions: pH 7.5; 25 °C
Procedure: Calpain inhibition assays were performed in 96-well black plates. The reaction was initiated by the addition of substrate solution. The progress of the reaction was followed for 10 min in a (BMG) Fluorostar with excitation at 485 nm and emission at 530 nm. The percentage inhibition was determined as […]. The reported IC50 values are the average of triplicate determinations.

Compound | pIC50
CC(C)C[C@@H](C=O)NC(=O)[C@@H](NC(=O)c1cc(C=O)c[nH]1)C(C)C [(2S)-2-[(4-formyl-1H-pyrrol-2-yl)formamido]-3-methyl-N-[(2S)-4-methyl-1-oxopentan-2-yl]butanamide] | 7.00
CC(C)C[C@@H](C=O)NC(=O)[C@@H](NC(=O)c1ccc(C=O)o1)C(C)C [(2S)-2-[(5-formylfuran-2-yl)formamido]-3-methyl-N-[(2S)-4-methyl-1-oxopentan-2-yl]butanamide] | 7.00
CC(C)C[C@@H](C=O)NC(=O)[C@@H](NC(=O)c1cccs1)C(C)C [(2S)-3-methyl-N-[(2S)-4-methyl-1-oxopentan-2-yl]-2-(thiophen-2-ylformamido)butanamide] | 7.00
